Measurements as given in the supplement of paper PMC10627819.

What was measured:
[1] = system: S. aureus Newman; test: fitness (endpoint OD595 vs no drug) (fraction); higher = more growth; conditions: one replicate
Outline: (§1)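 Fitness is computed from the optical density at which cultures reach stationary phase, divided by the robust mean of no-drug control wells. Any value above 1 is set to 1. Cultures started at OD595 0.01 in 384-well plates with TSB, LB Lennox or CY at 37 °C, and OD595 was read every 30 min for 14 h against a first-reading background.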

[2] = system: B. subtilis 168; test: Bliss interaction score (quartile over a dose matrix) (fitness difference); higher = more antagonism (negative = synergy)
Outline: (§2)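 Fitness was defined as normalised growth: OD595 at the start of stationary phase divided by the plate's robust no-drug mean and capped at 1. Single-drug fitness was inferred from combination measurements. The Bliss score is observed fitness minus the product of the single-drug values, summarised by quartiles across technical, biological and donor/recipient replicates.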

[3] = system: S. aureus DSM 20231; test: as above
Outline: as §2

[4] = system: S. aureus Newman; test: as above
Outline: as §2

[5] = system: S. pneumoniae D39V; test: as above
Outline: as §2

[6] = system: B. subtilis 168; test: fitness (endpoint OD595 vs no drug) (fraction); higher = more growth
Outline: as §1

[7] = system: S. pneumoniae D39V; test: as above
Outline: as §1
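Throughout, for Bliss interaction score (quartile over a dose matrix): first quartile when negative (synergy) and third quartile when positive (antagonism).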
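Throughout, for fitness (endpoint OD595 vs no drug): OD595 on entry to stationary phase over no-drug wells; at most 1.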

CC[C@H]1OC(=O)[C@H](C)[C@@H](O[C@H]2C[C@@](C)(OC)[C@@H](O)[C@H](C)O2)[C@H](C)[C@@H](O[C@@H]2O[C@H](C)C[C@H](N(C)C)[C@H]2O)[C@](C)(O)C[C@@H](C)CN(C)[C@H](C)[C@@H](O)[C@]1(C)O [Azithromycin] + C/C(=C\C(=O)OCCCCCCCCC(=O)O)C[C@@H]1OC[C@H](C[C@@H]2O[C@H]2[C@@H](C)[C@H](C)O)[C@@H](O)[C@H]1O [Pseudomonic acid]
fitness, [1]
Conditions | first compound 0.125 µg/mL | first compound 0.25 µg/mL | first compound 0.5 µg/mL
partner 0.0313 µg/mL | 0.0547 | 0.0237 | 0
partner 0.0625 µg/mL | 0.0262 | 0.0139 | 0.0154
partner 0.125 µg/mL | 0.0288 | 0.0141 | 0.0119

Conditions | Bliss interaction score
[2] | -0.0541
[3] | -0.0221
[4] | -0.0303
[5] | -0.0833

CC1=C(C(=O)O)N2C(=O)[C@@H](NC(=O)[C@H](N)c3ccccc3)[C@H]2SC1 [Cephalexin] + CC(=O)NC[C@H]1CN(c2ccc(N3CCOCC3)c(F)c2)C(=O)O1 [Linezolid]
fitness
Conditions | first compound 0.125 µg/mL | first compound 0.25 µg/mL | first compound 0.5 µg/mL | first compound 1 µg/mL | first compound 2 µg/mL | first compound 4 µg/mL
[6], partner 0.125 µg/mL | 0.569 | 0.582 | 0.601 | – | – | –
[6], partner 0.25 µg/mL | 0.121 | 0.119 | 0.117 | – | – | –
[6], partner 0.5 µg/mL | 0.0468 | 0.0463 | 0.0421 | – | – | –
[7], partner 0.105 µg/mL | – | – | – | 0.606 | 0.0569 | 0.0509
[7], partner 0.21 µg/mL | – | – | – | 0.475 | 0.0291 | 0
[7], partner 0.42 µg/mL | – | – | – | 0.332 | 0.0014 | 0.0511

fitness, one replicate
Conditions | first compound 0.125 µg/mL | first compound 0.25 µg/mL | first compound 0.5 µg/mL | first compound 1 µg/mL
[6], partner 0.0625 µg/mL | – | 0.901 | 0.932 | 0.877
[6], partner 0.125 µg/mL | – | – | – | 0.66
[6], partner 0.25 µg/mL | – | – | – | 0.0828
[7], partner 0.2 µg/mL | 0.778 | 0.84 | 0.829 | –
[7], partner 0.4 µg/mL | 0.667 | 0.707 | 0.726 | –
[7], partner 0.8 µg/mL | 0.222 | 0.36 | 0.375 | –

Conditions | Bliss interaction score
[2] | 0.0768
[3] | 0.0858
[4] | 0.106
[5] | -0.075

CC1=C(C(=O)O)N2C(=O)[C@@H](NC(=O)[C@H](N)c3ccccc3)[C@H]2SC1 [Cephalexin] + CCC(C)C1C(=O)NC(=C)C(=O)NC(C(=O)NC(CSCC(C(=O)N1)NC(=O)/C(=C/C)/NC(=O)C(C(C)CC)N)C(=O)NC2C(SCC(NC(=O)CNC(=O)C3CCCN3C2=O)C(=O)NC(CCCCN)C(=O)NC4C(SCC(NC(=O)CNC(=O)C(NC(=O)C(NC(=O)C(NC(=O)CNC4=O)C)CC(C)C)CCSC)C(=O)NC(CC(=O)N)C(=O)NC(CCSC)C(=O)NC(CCCCN)C(=O)NC5C(SCC6C(=O)NC(C(=O)NC(CSC(C(C(=O)N6)NC(=O)C(NC5=O)C)C)C(=O)NC(CO)C(=O)NC(C(C)CC)C(=O)NC(CC7=CN=CN7)C(=O)NC(C(C)C)C(=O)NC(=C)C(=O)NC(CCCCN)C(=O)O)CC8=CN=CN8)C)C)C)CC(C)C [Nisin]
fitness, one replicate, main component drawn
Conditions | first compound 0.125 µg/mL | first compound 0.25 µg/mL | first compound 0.5 µg/mL | first compound 1 µg/mL
[6], partner 0.5 µg/mL | 0.827 | 0.849 | 0.85 | –
[6], partner 1 µg/mL | 0.819 | 0.833 | 0.845 | –
[6], partner 1.25 µg/mL | – | ≥ 1 | 0.914 | 0.959
[6], partner 1.6 µg/mL | – | 0.8 | 0.735 | 0.85
[6], partner 2 µg/mL | 0.564 | 0.546 | 0.643 | –
[6], partner 2.5 µg/mL | – | 0.323 | 0.638 | 0.621
[6], partner 3.2 µg/mL | – | 0.0408 | 0.05 | 0.038
[6], partner 4 µg/mL | 0.0357 | 0.0253 | 0.0342 | –
[6], partner 5 µg/mL | – | 0.0428 | 0.0078 | 0.0511
[6], partner 6.4 µg/mL | – | 0.055 | 0.052 | 0.0405
[6], partner 8 µg/mL | 0.0286 | 0.0256 | 0.0219 | –
[6], partner 16 µg/mL | 0.0223 | 0.0191 | 0.051 | –
[7], partner 1.6 µg/mL | 0.111 | 0.067 | 0.12 | –
[7], partner 3.2 µg/mL | 0.0257 | 0.0254 | 0.0215 | –
[7], partner 6.4 µg/mL | 0.0326 | 0.0252 | 0.0194 | –

fitness, [7], main component drawn
Conditions | first compound 1 µg/mL | first compound 2 µg/mL | first compound 4 µg/mL
partner 0.4275 µg/mL | – | – | 0.0461
partner 0.855 µg/mL | – | 0.0896 | 0.05
partner 1.71 µg/mL | 0.0562 | 0.0571 | 0.0769

main component drawn
Conditions | Bliss interaction score
[2] | 0.0739
[3] | 0.0845
[4] | 0.0391
[5] | -0.0433
